Data taken from the supplement of paper PMC11451515.

Experiments:
[1] = system: NOMO1; experiment: AUC of viability dose-response curve (% viability x log10 dose units); higher = less sensitive; settings: 48 h
Procedure, shortened: (§1)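 Library compounds in DMSO were applied for 48 h at 37°C at 11 threefold doses (47 μM to 0.79 nM) to medium-adapted leukemia cells in 1536-well plates holding 500 or 1000 cells/well. Luminescence from CellTiter-Glo One was normalised plate by plate against DMSO and cell-free wells. Area under the curve came from trapezoidal integration of a log-logistic fit, after scaling curves that rose above full viability and discarding those that failed quality control. The fit had four parameters and used log10 doses.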

[2] = system: SEM cells; experiment: as above; settings: 48 h
Procedure, shortened: as §1

[3] = system: P12-Ichikawa; experiment: as above; settings: 48 h
Procedure, shortened: as §1

[4] = system: SEM cells; experiment: cell viability relative to DMSO control; higher = less cytotoxic; settings: 48 h
Procedure, shortened: (§2)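 Viability, reported as a per-plate percentage of DMSO wells with cell-free wells as background, came from CellTiter-Glo One luminescence. Reading took place after 48 h at 37°C. Before that, NOMO1 or SEM (500 cells/well) or P12-Ichikawa (1000 cells/well) leukemia cells, adapted for at least four passages in each medium, were seeded in 1536-well plates (5 μl) and pin-dosed with library compounds in DMSO, 47 μM to 0.79 nM over 11 threefold points.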

[5] = system: P12-Ichikawa; experiment: as above; settings: HPLM + 10% dialyzed FBS, 48 h
Procedure, shortened: as §2

C=CCNc1c(O)cc2c(O)c1C[C@@H](C)C[C@H](OC)[C@H](O)[C@@H](C)/C=C(/C)[C@H](OC(N)=O)[C@@H](OC)/C=C\C=C(\C)C(=O)N2
AUC of viability dose-response curve
Settings	[1]	[2]	[3]
HPLM + 10% dialyzed FBS	419	336	428
RPMI 5 mM glucose + 10% FBS	411	324	398
RPMI 5 mM glucose + 10% dialyzed FBS	401	305	410

Cn1cc(-c2ccc3nnc(Sc4ccc5ncccc5c4)n3n2)cn1
AUC of viability dose-response curve
Settings	[1]	[2]	[3]
HPLM + 10% dialyzed FBS	463	457	460
RPMI 5 mM glucose + 10% FBS	449	475	448
RPMI 5 mM glucose + 10% dialyzed FBS	455	472	459

O=C(CCCCCCNC(=O)c1cnc(N(c2ccccc2)c2ccccc2)nc1)NO
AUC of viability dose-response curve
Settings	[1]	[2]	[3]
HPLM + 10% dialyzed FBS	417	399	393
RPMI 5 mM glucose + 10% FBS	422	390	386
RPMI 5 mM glucose + 10% dialyzed FBS	426	392	382

C[C@H](NCc1ccc2c(c1)nc(NC(=O)c1ccc(-c3cn[nH]c3)s1)n2CCc1ccccc1)C(C)(C)C
AUC of viability dose-response curve
Settings	[1]	[2]	[3]
HPLM + 10% dialyzed FBS	373	248	410
RPMI 5 mM glucose + 10% FBS	404	242	403
RPMI 5 mM glucose + 10% dialyzed FBS	396	224	412

CC(C)(O)CCc1ccc(OCc2cc(-c3cccc(OC(F)F)c3)c3ncccc3c2)cc1
[4], HPLM + 10% dialyzed FBS
Settings	cell viability [%]
0.000781 µM	96
0.00234 µM	98.7
0.00702 µM	108
0.0211 µM	118
0.0632 µM	113
0.19 µM	126
0.569 µM	115
1.71 µM	127
5.12 µM	137
15.4 µM	119
46.1 µM	134

AUC of viability dose-response curve
Settings	[1]	[2]	[3]
HPLM + 10% dialyzed FBS	468	435	466
RPMI 5 mM glucose + 10% FBS	457	445	457
RPMI 5 mM glucose + 10% dialyzed FBS	460	469	456

COc1cc(CCc2cc(NC(=O)c3ccc(N4C[C@@H](C)N[C@@H](C)C4)cc3)n[nH]2)cc(OC)c1
cell viability [%], [4]
Settings	HPLM + 10% dialyzed FBS	RPMI 5 mM glucose + 10% FBS	RPMI 5 mM glucose + 10% dialyzed FBS
0.000781 µM	109	111	122
0.00234 µM	125	113	122
0.00702 µM	131	117	124
0.0211 µM	128	123	125
0.0632 µM	127	96.1	101
0.19 µM	52	47.8	52.1
0.569 µM	85.8	80.7	96.2
1.71 µM	77	66.2	87.7
5.12 µM	64.4	63.5	64.1
15.4 µM	29.8	29.7	31.6
46.1 µM	18	19.5	18.5

Settings	AUC of viability dose-response curve	cell viability [%]
[1], HPLM + 10% dialyzed FBS	442	–
[1], RPMI 5 mM glucose + 10% FBS	466	–
[1], RPMI 5 mM glucose + 10% dialyzed FBS	455	–
[2], HPLM + 10% dialyzed FBS	333	–
[2], RPMI 5 mM glucose + 10% FBS	319	–
[2], RPMI 5 mM glucose + 10% dialyzed FBS	332	–
[3], HPLM + 10% dialyzed FBS	448	–
[3], RPMI 5 mM glucose + 10% FBS	435	–
[3], RPMI 5 mM glucose + 10% dialyzed FBS	414	–
[5], 0.000781 µM	–	124
[5], 0.00234 µM	–	136
[5], 0.00702 µM	–	118
[5], 0.0211 µM	–	130
[5], 0.0632 µM	–	123
[5], 0.19 µM	–	121
[5], 0.569 µM	–	120
[5], 1.71 µM	–	119
[5], 5.12 µM	–	109
[5], 15.4 µM	–	107
[5], 46.1 µM	–	90
